The values below come from ChEMBL document CHEMBL1255557, “Heterobiaryl and heterobiaryl ether derived M5 positive allosteric modulators” (Bioorg Med Chem Lett, 2010).

Active and inactive are the calls of the source. The rule behind the calls is not given here. Where only a bound is given, the exact number is not on record here.

In data set [1] the target is T1, Muscarinic acetylcholine receptor M5 (Homo sapiens) (UniProt P08912).
T1 sequence (whole entry): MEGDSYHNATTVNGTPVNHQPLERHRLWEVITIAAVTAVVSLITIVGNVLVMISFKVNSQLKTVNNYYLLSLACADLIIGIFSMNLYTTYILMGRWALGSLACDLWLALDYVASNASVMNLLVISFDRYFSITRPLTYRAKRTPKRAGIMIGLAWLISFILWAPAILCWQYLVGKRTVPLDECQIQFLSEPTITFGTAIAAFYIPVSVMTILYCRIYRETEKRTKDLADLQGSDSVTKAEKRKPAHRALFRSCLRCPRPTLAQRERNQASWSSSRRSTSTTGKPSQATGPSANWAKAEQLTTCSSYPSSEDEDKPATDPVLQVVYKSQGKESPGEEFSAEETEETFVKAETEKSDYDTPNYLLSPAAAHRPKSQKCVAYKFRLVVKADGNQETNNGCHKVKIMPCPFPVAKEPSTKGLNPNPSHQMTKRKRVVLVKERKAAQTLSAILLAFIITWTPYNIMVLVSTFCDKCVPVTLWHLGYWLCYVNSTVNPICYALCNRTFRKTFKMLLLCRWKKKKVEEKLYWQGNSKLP
In words: Positive allosteric modulation of muscarinic M5 receptor expressed in CHO cells assessed as potentiation of acetylcholine-induced intracellular calcium mobilization at 10 uM after 1 hr by FLIPR assay. The format is functional, cell-based. Background: Calcium flux is commonly read through the fluorescence of an indicator in the cells.

In data set [2] the target is T2, Muscarinic acetylcholine receptor M5 (Homo sapiens, UniProt P08912).
T2 sequence (P08912 whole entry): T1 sequence (whole entry)
Description: Positive allosteric modulation of muscarinic M5 receptor expressed in CHO cells assessed as effect on acetylcholine-induced intracellular calcium mobilization after 1 hr by FLIPR assay. It is filed as functional, cell-based.

The nature of data set [3]: Partition coefficient, log P of the compound. The format is physicochemical. The note with it: octanol/water.
Data set [4] deals with T1, Muscarinic acetylcholine receptor M5 (Homo sapiens). In words: Positive allosteric modulation of muscarinic M5 receptor expressed in CHO cells assessed as effect on acetylcholine-induced intracellular calcium mobilization after 1 hr by FLIPR assay relative to acetylcholine. It is filed as functional, cell-based.
Data set [5] has the same target. In words: Positive allosteric modulation of muscarinic M5 receptor expressed in CHO cells assessed as potentiation of acetylcholine-induced intracellular calcium mobilization at 30 uM after 1 hr by FLIPR assay relative to acetylcholine. The format is functional, cell-based.

For `COc1cccc(COc2ccc3c(c2)C(=O)C(=O)N3Cc2ccc(-c3ccccc3)cc2)c1`, in data set [1], the result was inactive.
Turning to `O=C1C(=O)N(Cc2ccc(-c3cccnc3)cn2)c2ccc(OC(F)(F)F)cc21`, the EC50 in data set [2] is greater than 30 µM.
As to `COc1ccc(COc2ccc3c(c2)C(=O)C(=O)N3Cc2ccc(-c3ccccc3)cc2)cc1`, the outcome in data set [1] was inactive.
Same read-out and setting: next, `O=C1C(=O)N(Cc2ccc(-c3ccccc3)cc2)c2ccc(OCCc3ccccc3F)cc21`: “inactive”.
As for `O=C1C(=O)N(Cc2ccc(-c3ccccc3)cc2)c2ccc(OCCc3ccccc3C(F)(F)F)cc21`, the result in data set [1] was inactive.
Still for that read-out and setting: then `O=C1C(=O)N(Cc2ccc(-c3ccccc3)cc2)c2ccc(OCc3ccccc3Cl)cc21`, with “inactive”.
Consider `O=C1C(=O)N(Cc2ccc(-c3ccccc3)cc2)c2ccc(OCc3ccc(F)cc3)cc21`, for which the outcome in data set [1] was inactive.
`O=C1C(=O)N(Cc2ccc(-c3cccnc3)nc2)c2ccc(OC(F)(F)F)cc21`: in data set [3], the logP is on record as 3. Also, in data set [2], the EC50 worked out at 4 µM. The Emax in data set [4] was 53%.
For the compound `Cc1ccccc1COc1ccc2c(c1)C(=O)C(=O)N2Cc1ccc(-c2ccccc2)cc1`, the result in data set [1] was inactive.
As for `O=C1C(=O)N(Cc2ccc(-c3ccccc3)cc2)c2ccc(OCc3cccnc3)cc21`, the result in data set [1] was inactive.
For `O=C1C(=O)N(Cc2ccc(Oc3ccccc3)cc2)c2ccc(OC(F)(F)F)cc21`, in data set [5], the fold change (FC) came to 5.
Regarding `O=C1C(=O)N(Cc2ccc(-c3ccccc3)cc2)c2ccc(OCc3cccc(F)c3)cc21`, the outcome in data set [1] was inactive.
For `O=C1C(=O)N(Cc2ccc(-c3ccccc3)cc2)c2ccc(OCc3ccccc3C(F)(F)F)cc21`, the result in data set [1] was inactive.
For `COc1ccccc1COc1ccc2c(c1)C(=O)C(=O)N2Cc1ccc(-c2ccccc2)cc1`, the outcome in data set [1] was inactive.
With `O=C(O)COc1ccc2c(c1)C(=O)C(=O)N2Cc1ccc(-c2ccccc2)cc1`, the outcome in data set [1] was inactive.
The same measure, in the same setting: next, `O=C1C(=O)N(Cc2ccc(-c3ccccc3)cc2)c2ccc(OCc3cccc(Cl)c3)cc21`: “inactive”.
`O=C1C(=O)N(Cc2ccc(-c3ccccc3)cc2)c2ccc(OC(F)(F)F)cc21` came in with a logP in data set [3] of 4.6. In data set [5], the fold change (FC) worked out at 10.
As to `CCOc1ccc2c(c1)C(=O)C(=O)N2Cc1ccc(-c2ccccc2)cc1`, the result in data set [1] was inactive.
The same measure, in the same setting: then `O=C1C(=O)N(Cc2ccc(-c3ccccc3)cc2)c2ccc(Oc3ccccn3)cc21`, with “inactive”.
`CC(C)COc1ccc2c(c1)C(=O)C(=O)N2Cc1ccc(-c2ccccc2)cc1`: the result in data set [1] was inactive.
As for `O=C1C(=O)N(Cc2c(F)cc(-c3ccccc3)cc2F)c2ccc(OC(F)(F)F)cc21`, the EC50 in data set [2] was greater than 30 µM.
On to `O=C1C(=O)N(Cc2ccc(-c3ccccc3)cc2)c2ccc(OCc3ccccc3F)cc21`, for which the outcome in data set [1] was inactive.
`COc1ccc2c(c1)C(=O)C(=O)N2Cc1ccc(-c2ccccc2)cc1`: the outcome in data set [1] was inactive.
For the compound `O=C1C(=O)N(Cc2ccc(-c3ccccc3)cn2)c2ccc(OC(F)(F)F)cc21`, the EC50 in data set [2] worked out at 3.1 µM. For the same compound, the Emax in data set [4] came to 47%.
Regarding `O=C1C(=O)N(Cc2ccc(-c3ccccc3)cc2)c2ccc(OCc3ccc(C(F)(F)F)cc3)cc21`, the result in data set [1] was inactive.
As for `CN(C)CCOc1ccc2c(c1)C(=O)C(=O)N2Cc1ccc(-c2ccccc2)cc1`, the result in data set [1] was inactive.
Consider `O=C1C(=O)N(Cc2ccc(-c3ccccc3)cc2)c2ccc(OCc3cccc(OC(F)(F)F)c3)cc21`, for which the outcome in data set [1] was inactive.
Same read-out and setting: next, `O=C1C(=O)N(Cc2ccc(-c3ccccc3)cc2)c2ccc(OCC3CCCCC3)cc21`: “inactive”; `CCCCOc1ccc2c(c1)C(=O)C(=O)N2Cc1ccc(-c2ccccc2)cc1`: “inactive”.
Take `O=C1C(=O)N(Cc2ccc(-c3ccccc3)cc2F)c2ccc(OC(F)(F)F)cc21`: the EC50 in data set [2] stood at 5.9 µM. Further, in data set [4], the Emax was 63%.
For `O=C1C(=O)N(Cc2cccc(-c3ccccc3)c2)c2ccc(OC(F)(F)F)cc21`, the EC50 in data set [2] was greater than 30 µM.
In the case of `O=C1C(=O)N(Cc2ccc(-c3ccccc3)cc2)c2ccc(OCC3CCC3)cc21`, the outcome in data set [1] was inactive.
As for `O=C1C(=O)N(Cc2ccc(-c3ccccc3)cc2)c2ccc(OCCC(F)(F)F)cc21`, in data set [1], the result was inactive.
Consider `CC1CCCN(COc2ccc3c(c2)C(=O)C(=O)N3Cc2ccc(-c3ccccc3)cc2)C1` (stereo unspecified), for which the result in data set [1] was inactive.
`O=C1C(=O)N(Cc2cccc(Oc3ccccc3)c2)c2ccc(OC(F)(F)F)cc21`: the EC50 in data set [2] is greater than 30 µM.
For the compound `Cc1ccccc1CCOc1ccc2c(c1)C(=O)C(=O)N2Cc1ccc(-c2ccccc2)cc1`, the outcome in data set [1] was inactive.
With `COc1cccc(Oc2ccc(CN3C(=O)C(=O)c4cc(OC(F)(F)F)ccc43)cc2)n1`, the EC50 in data set [2] stood at 2.2 µM. In data set [4], the Emax is 51%.
`O=C1C(=O)N(Cc2ccc(-c3ccccc3)cc2)c2ccc(OCc3ccccc3)cc21`: the outcome in data set [1] was inactive.
For the compound `O=C1C(=O)N(Cc2ccc(Oc3nccs3)cc2)c2ccc(OC(F)(F)F)cc21`, in data set [2], the EC50 turned out to be 2.8 µM. The Emax in data set [4] was found to be 58%.
For the compound `O=C1C(=O)N(Cc2ccc(-c3ccccc3)cc2)c2ccc(OCc3cc(F)ccc3F)cc21`, in data set [1], the result was inactive.
Same read-out and setting: next, `O=C1C(=O)N(Cc2ccc(-c3ccccc3)cc2)c2ccc(OCc3ccc(OC(F)(F)F)cc3)cc21`: “inactive”.
As to `O=C1C(=O)N(Cc2ccc(-c3cncnc3)cc2)c2ccc(OC(F)(F)F)cc21`, the EC50 in data set [2] came to 2.1 µM. For the same compound, in data set [4], the Emax was determined as 53%.
`O=C1C(=O)N(Cc2ccc(-c3ccccc3)cc2)c2ccc(OCC(F)(F)F)cc21`: in data set [1], the outcome was inactive.
On to `O=C1C(=O)N(Cc2ccc(-c3cccnc3)cc2)c2ccc(OC(F)(F)F)cc21`, for which the EC50 in data set [2] worked out at 1.6 µM. For the same compound, in data set [4], the Emax was determined as 51%.
For `O=C1C(=O)N(Cc2ccc(-c3ccccc3)cc2)c2ccc(OCCc3ccccc3Cl)cc21`, the outcome in data set [1] was inactive.
Turning to `O=C1C(=O)N(Cc2ccc(-c3ccncc3)nc2)c2ccc(OC(F)(F)F)cc21`, the EC50 in data set [2] was determined as 4.4 µM. For the same compound, the Emax in data set [4] amounted to 50%.
Take `O=C1C(=O)N(Cc2ccc(-c3ccncc3)cc2)c2ccc(OC(F)(F)F)cc21`: in data set [2], the EC50 was determined as 2.8 µM. In addition, the Emax in data set [4] is 60%.
With `CCCOc1ccc2c(c1)C(=O)C(=O)N2Cc1ccc(-c2ccccc2)cc1`, the outcome in data set [1] was inactive.
For the compound `O=C1C(=O)N(Cc2ccc(Oc3ccccn3)cc2)c2ccc(OC(F)(F)F)cc21`, the EC50 in data set [2] came to 3.2 µM. For the same compound, the Emax in data set [4] turned out to be 46%.
As for `O=C1C(=O)N(Cc2ccc(-c3ccccc3)cc2)c2ccc(OCc3ccc(Cl)cc3)cc21`, the outcome in data set [1] was inactive.
On the same count and under the same terms, then `COc1ccc(COc2ccc3c(c2)C(=O)C(=O)N3Cc2ccc(-c3ccccc3)cc2)cc1C(F)(F)F`, with “inactive”; and `O=C1C(=O)N(Cc2ccc(-c3ccccc3)cc2)c2ccc(OCc3c(F)cccc3F)cc21`, with “inactive”; and `O=C1C(=O)N(Cc2ccc(-c3ccccc3)cc2)c2ccc(Oc3ncccn3)cc21`, with “inactive”.
On to `O=C1C(=O)N(Cc2ccc(-c3ccccc3)cc2)c2ccc(OCc3ccccn3)cc21`, for which the result in data set [1] was inactive.
In the case of `O=C1C(=O)N(Cc2ccc(-c3ccccc3)cc2)c2ccc(OCCN3CCCC3)cc21`, the result in data set [1] was inactive.
For `O=C1C(=O)N(Cc2ccc(-c3ccccc3)cc2)c2ccc(OCc3ccncc3)cc21`, the result in data set [1] was inactive.
Same read-out and setting: next, `O=C1C(=O)N(Cc2ccc(-c3ccccc3)cc2)c2ccc(OCCN3CCOCC3)cc21`: “inactive”.
Take `O=C1C(=O)N(Cc2ccc3c(c2)OCO3)c2ccc(OC(F)(F)F)cc21`: the EC50 in data set [2] was 3.2 µM. The Emax in data set [4] amounted to 90%.
On to `O=C1C(=O)N(Cc2ccc(-c3ccccc3)cc2)c2ccc(OCc3cccc(C(F)(F)F)c3)cc21`, for which the outcome in data set [1] was inactive.
Regarding `O=C1C(=O)N(Cc2ccc(-c3ccncc3)cn2)c2ccc(OC(F)(F)F)cc21`, the EC50 in data set [2] is greater than 30 µM.
Consider `O=C1C(=O)N(Cc2ccc(Cl)nc2)c2ccc(OC(F)(F)F)cc21`, for which, in data set [2], the EC50 stood at 2.4 µM. Further, the Emax in data set [4] was 80%.
`O=C1C(=O)N(Cc2ccc(-c3ccccc3)cc2)c2ccc(OCc3ccc(F)cc3F)cc21`: the outcome in data set [1] was inactive.

The term EC50 denotes the midpoint of the concentration-response curve. The term logP denotes a log measure of how a compound divides between an organic and an aqueous phase. In general, Emax refers to the greatest response seen or fitted, relative to the assay's reference.
